Data taken from publication PMC12029309, “Synthesis and Antifungal Activity of 1,2,4-Oxadiazole Derivatives” (Molecules, 2025).
Values after ≈ are worked out from the molar mass of the structure shown. Read-outs that look alike come from different tables or passages of the source.

Assays:
R. solani = experiment: microbe, parasite or virus in culture; format: cell-based; settings: Rhizoctonia solani; for EC50: read-out: EC50 (μg/mL) R. solani; for inhibition at 50 µg/mL: read-out: The Inhibition Rate (%) R. solani
F. graminearum = experiment: microbe, parasite or virus in culture; format: cell-based; settings: Fusarium graminearum; for EC50: read-out: EC50 (μg/mL) F. graminearum; for inhibition at 50 µg/mL: read-out: The Inhibition Rate (%) F. graminearum
E. turcicum = experiment: Mycelial growth inhibition test in vitro (E. turcicum); format: cell-based; settings: Exserohilum turcicum; for EC50: read-out: EC50 (μg/mL) E. turcicum; for inhibition at 50 µg/mL: 50 μg/mL, mean ± SD of three replicates, read-out: The Inhibition Rate (%) E. turcicum
B. cinerea = experiment: Mycelial growth inhibition test in vitro (B. cinerea); format: cell-based; settings: Botrytis cinerea; 50 μg/mL, mean ± SD of three replicates; read-out: The Inhibition Rate (%) B. cinerea
Protocol: (§1) The antifungal activity of the target compound was tested by the mycelial growth inhibition rate method. The compounds were detected at a concentration of 50 μg/mL, and carbendazim was used as the positive control. The antifungal activity was carried out according to literature reports. After drilling the mycelium (3 mm), it was inoculated into the PDA medium containing compounds, and the Petri dish was put into the incubator at 25 °C for 12-48 h; then, the colony diameter was measured with 50 index vernier caliper by the cross method, and the data were recorded. […] • A: The average diameter of the blank medium colony. • B: Diameter of mushroom cake (3 mm). • C: The average diameter of the colonies in the medium containing compound.

C. capsica [1] = experiment: Mycelial growth inhibition test in vitro (C. capsica); format: cell-based; settings: Colletotrichum; for EC50: read-out: EC50 (μg/mL) C. capsica; for inhibition at 50 µg/mL: 50 μg/mL, mean ± SD of three replicates, read-out: The Inhibition Rate (%) C. capsica
Protocol: as §1, with “compound. […] The PDA medium containing different concentrations of the compound was prepared by the two-fold dilution method, the final concentration of the compound in the medium was adjusted to 0-100.00 μg/mL, and three parallel samples were set for each concentration. […] The toxicity regression equation of the tested compound was obtained, taking the logarithm of compound concentration (lgc) as the independent variable (x) and the probability value of inhibition rate as the dependent variable (y), and the EC50 value of each tested compound was calculated.” for “compound.”

C. capsica [2] = experiment: Antifungal activity in vivo: protective effect on detached pepper infected by C. capsica; set-up: species or system Colletotrichum capsica
Protocol: The protective effects of compounds 4q and 4f and carbendazim on pepper infected by […] studied. […] The peppers were washed with water and dried, and the surface was wiped with 75% ethanol for sterilization. The infected area was pricked with a diameter of 4 mm on the surface of the green pepper with a sterile inoculation needle. After spraying the antifungus compound solution on the surface and resting for 12 h, the activated cake (4 mm in diameter) was inoculated into the infected area. After culturing at 25 °C for 1 to 7 days, the plaque diameter was measured by the cross method, and the efficacy was calculated according to Formula (2).(2) Control efficacy%=A-B/A-C×100% • A: The average diameter of the blank medium colony. • B: The average diameter of the colonies in the medium containing compound. • C: Diameter of mushroom cake (3 mm/4 mm).

MCF-7 cell line = experiment: MTT cytotoxicity evaluation on MCF-7 cells; format: cell-based; settings: 100 μM, 24 h
Protocol: (§2) Cells were incubated at 37 °C in an incubator with 5% CO2. Cell viability was determined using the MTT assay. Briefly, MCF-7 cell lines were seeded at 5000–8000 cells/well in 96-well plates. […] Following a continuous 24 h of incubation, the culture medium was replaced by 90 μL fresh culture medium, and 10 μL MTT solution was added.

[3] = MTT cytotoxicity evaluation on MCF-7 cells; format: cell-based; settings: human, range 0~100 μM
Protocol: as §2

## Oc1ccc(-c2nc(-c3ccccc3)no2)cc1O [Compound 4f, 4-(3-Phenyl-1,2,4-oxadiazol-5-yl) benzene-1,2-diol]
R. solani
  EC50: 12.7 µg/mL (≈ 49.9 µM)
  inhibition at 50 µg/mL: 80.9 ± 2.4%
F. graminearum
  EC50: 30 µg/mL (≈ 118 µM)
  inhibition at 50 µg/mL: 100%
E. turcicum
  EC50: 29.1 µg/mL (≈ 115 µM)
  inhibition at 50 µg/mL: 85.7 ± 1.97%
B. cinerea
  inhibition at 50 µg/mL: 38.9 ± 5.35%
C. capsica [1]
  EC50: 8.81 µg/mL (≈ 34.7 µM)
  inhibition at 50 µg/mL: 86.8 ± 3.11%
C. capsica [2]; 500 μg/mL, 5 days
  Control efficacy (%): 100%
C. capsica [2]; 1000 μg/mL, 3 day
  Control efficacy (%): 100%

## COc1ccc(-c2noc(-c3ccc(C(C)(C)C)cc3)n2)cc1 [Compound 4l, 5-(4-(tert-Butyl)phenyl)-3-(4-methoxyphenyl)-1,2,4-oxadiazole]
MCF-7 cell line
  cell survival rate of MCF-7 cells: significant cell proliferation
R. solani
  inhibition at 50 µg/mL: < 10%
F. graminearum
  inhibition at 50 µg/mL: 27.6 ± 1.78%
E. turcicum
  inhibition at 50 µg/mL: 24.2 ± 3.77%
B. cinerea
  inhibition at 50 µg/mL: < 10%
C. capsica [1]
  inhibition at 50 µg/mL: < 10%

## COc1ccc(-c2noc(-c3cc(O)cc(O)c3)n2)cc1OC [Compound 4p, 5-(3-(3,4-Dimethoxyphenyl)-1,2,4-oxadiazol-5-yl)benzene-1,3-diol]
MCF-7 cell line
  cell survival rate of MCF-7 cells: significant cell proliferation
R. solani
  inhibition at 50 µg/mL: < 10%
F. graminearum
  inhibition at 50 µg/mL: < 10%
E. turcicum
  inhibition at 50 µg/mL: 11.2 ± 1.91%
B. cinerea
  inhibition at 50 µg/mL: < 10%
C. capsica [1]
  inhibition at 50 µg/mL: 0%

## COc1ccc(-c2noc(-c3ccc(O)c(O)c3)n2)cc1OC [Compound 4q, 4-(3-(3,4-Dimethoxyphenyl)-1,2,4-oxadiazol-5-yl)benzene-1,2-diol]
[3]
  IC50 at 24 h: ≥ 100 µM
R. solani
  EC50: 38.9 µg/mL (≈ 124 µM)
  inhibition at 50 µg/mL: 47.8 ± 8.13%
F. graminearum
  EC50: 149 µg/mL (≈ 475 µM)
  inhibition at 50 µg/mL: 43.5 ± 3.7%
E. turcicum
  EC50: 229 µg/mL (≈ 729 µM)
  inhibition at 50 µg/mL: 43.5 ± 0.99%
B. cinerea
  inhibition at 50 µg/mL: 32.8 ± 12.2%
C. capsica [1]
  EC50: 41.7 µg/mL (≈ 133 µM)
  inhibition at 50 µg/mL: 55.5 ± 1.34%
C. capsica [2]; 500 μg/mL, 5 days
  Control efficacy (%): 50.12%
C. capsica [2]; 1000 μg/mL, 5 days
  Control efficacy (%): 76.83%

## COc1ccc(-c2noc(/C=C/c3ccccc3)n2)cc1OC [Compound 5e, (E)-3-(3,4-Dimethoxyphenyl)-5-styryl-1,2,4-oxadiazole]
MCF-7 cell line
  cell survival rate of MCF-7 cells: significant cell proliferation
R. solani
  inhibition at 50 µg/mL: 23.9 ± 0.59%
F. graminearum
  inhibition at 50 µg/mL: 28.7 ± 5.14%
E. turcicum
  inhibition at 50 µg/mL: 29.4 ± 2.05%
B. cinerea
  inhibition at 50 µg/mL: 30.6 ± 1.43%
C. capsica [1]
  inhibition at 50 µg/mL: < 10%

## COC(=O)Nc1nc2ccccc2[nH]1 [carbendazim, reference compound]
R. solani
  EC50: 1.1 µg/mL (≈ 5.75 µM)
F. graminearum
  EC50: 19.6 µg/mL (≈ 102 µM)
E. turcicum
  EC50: 110 µg/mL (≈ 573 µM)
C. capsica [1]; mycelial growth, 0–100.00 μg/mL two-fold dilution
  EC50: 0.22 µg/mL (≈ 1.15 µM)
C. capsica [2]; 500 μg/mL, 5 days
  Control efficacy (%): 100%
C. capsica [2]; 1000 μg/mL, 5 days
  Control efficacy (%): 100%
